Results as given in patent US20030138785A1 (priority 2001, published 2003).

Legend:
[1] = test system: DHFR fusion protein; test: MP5 competition assay (yeast three-hybrid X-gal plate assay of lacZ transcription); type: cell-based; conditions: 1 μM D8M, X-gal plates, LexA/B42 chimeras of DHFR and rGR
Method: FIG. 7. MP5 Competition Assay. […] Columns A through H on each plate correspond to yeast strains containing different LexA- and/or B42-chimeras: A, LexA-Sec16p, B42-Sec6p. A is a direct protein-protein interaction used as a positive control. B, LexA, B42. C, LexA-eDHFR, B42-rGR. D, LexA-mDHFR, B42-rGR. E, LexA-rGR, B42-eDHFR. F, LexA-rGR, B42-mDHFR. G, LexA-eDHFR, B42. H, LexA, B42-rGR.
This competition assay was performed using D8M as the “well characterized” small molecule.

[2] = molecular target: T1, LexA-rGR and B42-DHFR (UniProt P06536+P0ABQ4); conditions: shown by WO 01/53355; cited from earlier work
T1 sequence (P06536 542-776 limits assumed): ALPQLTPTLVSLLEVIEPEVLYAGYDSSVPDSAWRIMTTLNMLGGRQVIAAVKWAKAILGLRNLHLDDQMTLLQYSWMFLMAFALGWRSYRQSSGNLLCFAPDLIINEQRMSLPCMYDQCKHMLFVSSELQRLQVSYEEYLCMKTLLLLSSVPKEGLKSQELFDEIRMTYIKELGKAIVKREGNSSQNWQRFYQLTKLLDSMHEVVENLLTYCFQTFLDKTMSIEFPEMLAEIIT
T1 sequence (P0ABQ4 1-159): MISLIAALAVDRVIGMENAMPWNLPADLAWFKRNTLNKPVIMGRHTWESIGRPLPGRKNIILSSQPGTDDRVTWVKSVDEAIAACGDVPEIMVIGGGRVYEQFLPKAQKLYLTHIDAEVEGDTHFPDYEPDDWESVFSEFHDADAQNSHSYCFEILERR

[3] = test system: S. cerevisiae; conditions: supplemented with appropriate nutrients; cited from earlier work
[4] = test system: E. coli; conditions: supplemented with appropriate nutrients; cited from earlier work
[5] = test system: dihydrofolate reductase (DHFR); conditions: cited from earlier work

Structure (SMILES)	induction of lacZ transcription [1]	dimerization of LexA-rGR and B42-DHFR based on lacZ transcription [2]	growth in the presence of MTX [3]	growth in the presence of MTX [4]	affinity of DHFR binding [5]	affinity of DHFR inhibition [5]
C[C@@H]1C[C@H]2C3CCC4=CC(=O)C=C[C@]4(C)[C@@]3(F)[C@@H](O)C[C@]2(C)[C@@]1(O)C(=O)NCCSCCCCCCCCSCC[C@H](NC(=O)c1ccc(N(C)Cc2cnc3nc(N)nc(N)c3n2)cc1)C(=O)O (stereo partly drawn) [D8M]	induced lacZ transcription	mediate the dimerization of LexA-rGR and B42-DHFR	–	–	–	–
CN(Cc1cnc2nc(N)nc(N)c2n1)c1ccc(C(=O)N[C@@H](CCC(=O)O)C(=O)O)cc1 [MTX, methotrexate]	–	–	grow in the presence of MTX	grow in the presence of MTX	nM affinity	pM affinity
